Measurements from patent US20020192253A1, “Peeling composition” (priority 1999, published 2002).
Counter-ions that a name gives are not always drawn.

Tested on: skin
Experiment: Photodynamic peeling: ointment applied to facial skin, then 635 nm excimer dye laser irradiation
Conditions: for time at which peeling was completed after the operation: 635 nm
[1] = Example 1: 10 g of 20% ointment, left half of face, 4 hours, 5 J/cm^2 for 30 minutes
[2] = Example 2: 5 g of 20% ointment, right cheek, 12 hours, 5 J/cm^2 for 15 minutes

NCC(=O)CCC(=O)O [5-ALA hydrochloride, 5-aminolevulinic acid]
condition of treated part in follow-up survey (Example 1: 6 months after the treatment): still remained in favorable conditions | day from which edematous erythema gradually disappeared [1]: 3 days | skin reaction at the affected part after irradiation [1]: edematous erythema was formed at the affected part | time at which peeling was completed after the operation (Example 1: person, 10 g of 20% by weight ointment on left half of face, 4 hours shaded, 5 J/cm^2 for 30 minutes): 3 weeks | skin tension, wrinkles, pigmentation, acne spots compared with the untreated right part of the face (Example 1: treated left versus right part of face): obviously relieved | day from which edematous erythema gradually disappeared [2]: 3 days | skin reaction at the affected part after irradiation [2]: edematous erythema was formed at the affected part | condition of treated part in follow-up survey (Example 2: 6 months after the treatment): still remained in favorable conditions | time at which peeling was completed after the operation (Example 2: person, 5 g of 20% by weight ointment on right cheek (6 cm×6 cm), 12 hours shaded, 5 J/cm^2 for 15 minutes): 6 days | skin tension, wrinkles, pigmentation, acne spots compared with the corresponding part in the left cheek (Example 2: treated right cheek versus left cheek): obviously relieved
